Test results: ChEMBL document CHEMBL1201862, “PubChem BioAssay data set” (2004)
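1) Cells in 96-well plates. 2) Compound, 48 h, 5 concentrations. 3) Linear interpolation between surrounding doses. 4) Unreached endpoint = highest concentration. Here, GI50 denotes the concentration required for 50% inhibition of growth.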 The source made the active and inactive calls. Cut-off read from the data, not from the text of the source: active = GI50 up to about 1.1 µM and inactive = higher.

What was measured:
Test in all cases: NCI tumour cell line growth inhibition, 48 h
CAKI-1 = system: CAKI-1
CCRF-CEM = system: CCRF-CEM
EKVX = system: EKVX
HOP-62 = system: HOP-62
IGROV-1 = system: IGROV-1
K562 = system: K562
NCI-H226 = system: NCI-H226
NCI-H522 = system: NCI-H522
SF-295 = system: SF-295
SK-MEL-28 = system: SK-MEL-28
SK-MEL-2 = system: SK-MEL-2
SN12C = system: SN12C
SNB-78 = system: SNB-78
TK-10 = system: TK-10
U-251 = system: U-251
UO-31 = system: UO-31
HL-60 = system: HL-60
HOP-92 = system: HOP-92
MDA-MB-231 = system: MDA-MB-231
OVCAR-5 = system: OVCAR-5

Measured: GI50

NC(=O)c1ccc([N+](=O)[O-])cc1
inactive: CAKI-1 > 100 µM | CCRF-CEM > 100 µM | EKVX > 100 µM | HOP-62 > 100 µM | IGROV-1 > 100 µM | K562 > 100 µM | NCI-H226 > 100 µM | NCI-H522 > 100 µM | SF-295 > 100 µM | SK-MEL-28 > 100 µM | SK-MEL-2 > 100 µM | SN12C > 100 µM | SNB-78 > 100 µM | TK-10 > 100 µM | U-251 > 100 µM | UO-31 > 100 µM

CCOC(=O)C1Cc2c(cc3c4c(cccc24)N(C(C)=O)C3)N(C)C1 (stereo unspecified)
inactive: CAKI-1 7.71 µM | EKVX 9.59 µM | HL-60 11.3 µM | HOP-62 > 100 µM | HOP-92 1.65 µM | IGROV-1 5.83 µM | K562 4.39 µM | MDA-MB-231 1.4 µM | NCI-H226 2.9 µM | OVCAR-5 17.7 µM | SF-295 8.26 µM | SK-MEL-28 > 100 µM | SK-MEL-2 > 100 µM | SN12C 6.04 µM | TK-10 > 100 µM | U-251 4.93 µM
active: CCRF-CEM 0.867 µM | NCI-H522 0.0681 µM | UO-31 1.07 µM

COc1cc(/C=C2\C[C@H]3[C@@H]4CC=C5C=C(N6CCCC6)CC[C@]5(C)[C@H]4CC[C@]3(C)C2=O)cc(OC)c1OC
inactive: CAKI-1 2.84 µM | CCRF-CEM 2.82 µM | EKVX 3.75 µM | HL-60 1.13 µM | HOP-62 2.48 µM | HOP-92 2.21 µM | IGROV-1 1.79 µM | K562 3.42 µM | MDA-MB-231 2.4 µM | NCI-H226 13.6 µM | NCI-H522 1.43 µM | OVCAR-5 7.1 µM | SF-295 2.22 µM | SK-MEL-28 4.55 µM | SK-MEL-2 3.18 µM | SN12C 2.85 µM | TK-10 6.49 µM | U-251 1.96 µM | UO-31 4.83 µM

Clc1ccccc1/C=C/c1cscn1
inactive: CCRF-CEM > 100 µM | EKVX > 100 µM | HL-60 > 100 µM | HOP-62 > 100 µM | K562 > 100 µM | NCI-H522 > 100 µM | OVCAR-5 > 100 µM | SK-MEL-28 > 100 µM | SK-MEL-2 > 100 µM | SN12C > 100 µM | SNB-78 > 100 µM | TK-10 > 100 µM | U-251 > 100 µM | UO-31 88.1 µM

Clc1nc2c(N3CCCC3)nc(N3CCNCC3)nc2[nH]1
inactive: CAKI-1 39 µM | CCRF-CEM 19.4 µM | EKVX 17.3 µM | HL-60 19.5 µM | HOP-62 20 µM | HOP-92 16.6 µM | IGROV-1 17.9 µM | K562 23.1 µM | MDA-MB-231 16.4 µM | NCI-H226 > 100 µM | NCI-H522 17 µM | OVCAR-5 19.3 µM | SF-295 18.7 µM | SK-MEL-28 22.3 µM | SK-MEL-2 18.4 µM | SN12C 18.6 µM | TK-10 57.5 µM | U-251 17.2 µM | UO-31 15.7 µM

C=C(C)[C@H]1CC[C@@]23O[C@@H]2[C@@H](C[C@@]2(C)CC(=O)[C@H](CC(=O)C1)O2)OC(=O)[C@@]12CC[C@H](C(=C)C)CC(=O)C[C@H]4O[C@](C)(CC4=O)C[C@@H](OC3=O)[C@@H]1O2 [SINGARDIN]
inactive: CAKI-1 > 100 µM | CCRF-CEM 91.8 µM | EKVX > 100 µM | HL-60 > 100 µM | HOP-62 > 100 µM | HOP-92 > 100 µM | IGROV-1 52.8 µM | K562 > 100 µM | MDA-MB-231 > 100 µM | NCI-H226 > 100 µM | NCI-H522 > 100 µM | OVCAR-5 > 100 µM | SF-295 > 100 µM | SK-MEL-28 > 100 µM | SK-MEL-2 > 100 µM | SN12C > 100 µM | TK-10 > 100 µM | U-251 > 100 µM | UO-31 > 100 µM
